Among the data in PubChem BioAssay AID651764 (The Scripps Research Institute Molecular Screening Center, 2012) are EC50 values, retold here.

Activity calls are given as the source filed them. The rule behind the calls is not given here. Some results are limits rather than exact numbers.

Delta-type opioid receptor (Homo sapiens), sequence (P41143 whole entry, looked up): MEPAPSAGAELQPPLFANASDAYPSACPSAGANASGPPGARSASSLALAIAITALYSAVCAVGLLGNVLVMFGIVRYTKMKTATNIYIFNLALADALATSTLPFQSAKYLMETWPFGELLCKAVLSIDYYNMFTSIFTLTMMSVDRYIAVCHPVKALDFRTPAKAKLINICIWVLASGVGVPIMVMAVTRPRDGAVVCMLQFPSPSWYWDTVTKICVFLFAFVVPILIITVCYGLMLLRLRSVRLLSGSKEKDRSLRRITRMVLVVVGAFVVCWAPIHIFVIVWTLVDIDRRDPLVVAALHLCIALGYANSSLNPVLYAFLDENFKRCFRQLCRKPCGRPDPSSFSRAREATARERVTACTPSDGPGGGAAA

The experiment has as its target Delta-type opioid receptor (Homo sapiens) (UniProt P41143). Briefly: OPRD1 luminescent activation counter-screen – cell-based, luminescence, dose response, set 2, counter-screen for OPRM1-OPRD1 heterodimer activator project, late-stage follow-up (AID 651764). The settings on record: OPRD1 cell-based luminescence activation counterscreen.
Consider `CCOC(=O)C1(CCOC)CCN(Cc2ccc(NC(C)=O)cc2)CC1`, for which the EC50 is > 50 µM (inactive).
On to `C=Cc1ccc(C(=O)N2CCC(CCc3ccccc3)(C(=O)OCC)CC2)cc1`, for which the EC50 was > 50 µM (inactive).
Regarding `CCOC(=O)C1CCCCN1Cc1ccc(NC(C)=O)cc1` (stereo not drawn), the EC50 is > 50 µM (inactive).
With `CCOC(=O)C1CCN(C(=O)c2ccc(N(C)C)cc2)CC1`, the EC50 was > 50 µM (inactive).
With `CCOC(=O)C1(CCOC)CCN(Cc2ccc(N(C)c3ccccc3)cc2)CC1`, the EC50 is > 50 µM (inactive).
On to `CCOC(=O)C1CCN(CCC(=O)Nc2ccc(C)cc2)CC1`, for which the EC50 is > 50 µM (inactive).
As for `CCOC(=O)C1(Cc2ccccc2)CCCN(Cc2ccc(NC(C)=O)cc2)C1` (stereo not drawn), the EC50 was > 50 µM (inactive).
The result for `CCOC(=O)C1(CCc2ccccc2)CCN(Cc2ccncc2)CC1` reads > 50 µM (inactive); that for `CCOC(=O)C1(CCOC)CCCN(Cc2ccc(NC(C)=O)cc2)C1` (stereo not drawn), > 50 µM (inactive).
The result for `CCOC(=O)C1(CCOc2ccccc2)CCCN(Cc2ccc(NC(C)=O)cc2)C1` (stereo not drawn) reads > 50 µM (inactive); that for `CCOC(=O)C1(CC2CC2)CCN(Cc2ccc(NC(C)=O)cc2)CC1`, > 50 µM (inactive); that for `CCOC(=O)C1(CCc2ccccc2)CCN(Cc2c(O)cccc2OC)CC1`, > 50 µM (inactive).
Turning to `O=C(O)C1CCCCC1C(=O)Nc1ccc(CN2CCCCC2)cc1` (stereo not drawn), the EC50 was > 50 µM (inactive).
Consider `CCOC(=O)C1(CCc2ccccc2)CCN(Cc2ccc(O)cc2)CC1`, for which the EC50 is > 50 µM (inactive).
The result for `C=Cc1ccc(C(=O)N2CCC(CCCc3ccccc3)(C(=O)OCC)CC2)cc1` reads > 50 µM (inactive); that for `CCOC(=O)C1(Cc2ccc(OC)cc2)CCN(C(=O)c2ccc(N(C)C)cc2)CC1`, > 50 µM (inactive).
With `CCOC(=O)C1(CCc2ccccc2)CCN(Cc2ccc(C#CC(C)(C)O)cc2)CC1`, the EC50 is > 50 µM (inactive).
For `CC(=O)Nc1ccc(CN2CCCC(CO)(CCc3ccccc3)C2)cc1` (stereo not drawn), the EC50 was > 50 µM (inactive).
With `CCOC(=O)C1(Cc2ccccc2Cl)CCN(Cc2ccc(NC(C)=O)cc2)CC1`, the half-maximal effective concentration (EC50) is 0.321 µM.
On to `CCOC(=O)C1(CC2CC2)CCN(C(=O)c2ccc(N3CCCCC3)cc2)CC1`, for which the EC50 is > 50 µM (inactive).
Then `CCOC(=O)C1(CCc2ccccc2)CCN(Cc2ccc(C(=O)OC)cc2)CC1`, with > 50 µM (inactive); and `CCOC(=O)C1(CCc2ccccc2)CCN(Cc2ccc(OC)cc2)CC1`, with > 50 µM (inactive); and `CCOC(=O)C1CCN(Cc2ccc(NC(C)=O)cc2)CC1`, with > 50 µM (inactive).
For the compound `CCOC(=O)C1CCN(Cc2ccc(N(C)C)cc2)CC1`, the EC50 was > 50 µM (inactive).
For `CCOC(=O)C1(Cc2ccccc2C)CCCN(Cc2ccc(NC(C)=O)cc2)C1` (stereo not drawn), the EC50 was > 50 µM (inactive).
Regarding `CCOC(=O)C1(Cc2cccc(OC)c2)CCCN(Cc2ccc(NC(C)=O)cc2)C1` (stereo not drawn), the EC50 was > 50 µM (inactive).
On to `CCOC(=O)C1(CCc2ccccc2)CCCN(Cc2ccc(N3CCNC3=O)cc2)C1` (stereo not drawn), for which the EC50 was > 50 µM (inactive).
`CCOC(=O)C1(CCc2ccccc2)CCN(C(=O)Nc2ccc(C)cc2C)CC1`: the EC50 was > 50 µM (inactive).
